Source: patent publication US20100221763A1, “Specific Acceptors for Transferases to Saccharides and Method for Obtaining and Using Same” (Health Research, Inc, priority 2005, published 2010)

Legend:
[1] = test system: α1,2-L-FT of breast tumor BC9400; assay: α1,2-L-FT assay, breast tumor extract; format: biochemical, human; conditions: 1 mg protein of the tissue extract
Description: (§1) Colon tumor tissue (CC9338) and breast tumor tissue (BC9400) were obtained during surgical procedures at Roswell Park Cancer Institute and stored frozen within 1 h at −70° C. The tissues were homogenized at 4° C. with 4 volumes of 0.1M Tris Maleate […] 0.1% NaN3 using kinematica. After adjusting the concentration of Triton X-100 to 2%, these homogenates were mixed in the cold room for 1 h using Speci-Mix (Thermolyne) and then centrifuged at 20,000 g for 1 h at 4° C. The clear fat-free supernatant was stored frozen at −20° C. until use. Aliquots of 10 μL from this extract were used in assays run in duplicates. Glycosyltransferase activity in cell lysate was determined by mixing the lysates with acceptor and radiolabeled donor (monosaccharide) under the reaction conditions detailed below, followed by separation of un-reacted donor from the radioactive product using anionic or hydrophobic chromatography. In all cases, the radioactive content of isolated products was determined by using 3a70 scintillation cocktail (Research Products International, Mount Prospect, Ill.) and a Beckman LS6500 scintillation counter. Controls for each assay contained the reaction mixture with everything except the acceptor. All assays were run in duplicate.
(§2) α1,2, α1,6-, α1,3- and α1,4-fucosyltransferase (FT) assay reactions were carried out for 2 h in a reaction mixture containing 50 mM Hepes buffer (pH 7.5), 5 mM MnCl2, 7 mM ATP, 3 mM NaN3, 3 mM synthetic acceptor or 40 μg of fetuin-based acceptor, 0.05 μCi GDP-[14C]Fuc (290 mCi/mmol) and 10 μl cell extract in a total volume of 20 μl [Chandrasekaran et al., 1996]. Sulfotransferase (Sulfo T) assay reactions took 2 h and required a mixture containing 100 mM Tris-maleate (pH 7.2), 5 mM Mg Acetate, 5 mM ATP, 10 mM NaF, 10 mM BAL, 7.5 mM acceptor, 0.5 μCi of [^35S]PAPS (specific activity 2.4 Ci/mmol) and 10 μl of cell extract in a total volume of 30 μl [Chandrasekaran et al., 2004].
(§3) Dowex-1-C1 or Sep-Pak C18 cartridges were used to isolate radiolabeled product from the reaction mixture. For GalT, GalNAc-T and FT assays, the incubation mixture was diluted with 1 ml water and passed through a 1 ml Dowex-1-C1 column [Chandrasekaran et al., 1996; Chandrasekaran et al., 2001]. The column was washed twice with 1 ml of water. The breakthrough and the water wash contained the [^14C]-galactosylated or [^14C]-fucosylated products formed with neutral acceptors. 3 ml of 0.1M NaCl was used to obtain [^14C]-fucosylated products from sialylated acceptors after water elution. For sialytransferase assays, the radioactive products from benzylglycosides were separated by hydrophobic chromatography on Sep-Pak C18 cartridge (Waters, Milford, Mass.), and elution of the product was done with 3 ml methanol [Palcic et al., 1988]. […]

[2] = test system: α1,2-L-FT of colon tumor CC9338; assay: α1,2-L-FT assay, colon tumor extract; format: biochemical, human; conditions: 1 mg protein of the tissue extract
Description: as §1, §2, §3

[3] = test system: Siglec 4 (MAG); conditions: Blixt et al. (49); cited from earlier work
[4] = test system: β-GlcNAc:β1,4GalNAc-T of colon tumor CC9338; assay: β-GlcNAc:β1,4GalNAc-T assay, colon tumor extract; format: biochemical, human; conditions: other acceptors, 1 mg protein of the tissue extract
Description: as §1
(§4) The acceptors used for measuring the glycosyltransferase and sulfotransferase activities are given in Table I. The following are the conditions for individual enzymatic assays. Reaction temperature in all cases was 37° C. α2,3- and α2,6 sialytransferase (ST) assay reactions proceeded for 2 h in a mixture containing 100 mM sodium cacodylate buffer (pH 6.0), 7.5 mM acceptor, CMP-[9-^3H]NeuAc (typically 0.2 μCi) and 10 μl cell extract in a total volume of 20 μl [Chandrasekaran et al., 1995]. βGlcNAc:β1,4Gal-T and αGalNAc:β1,3Gal-T assay mixtures in duplicate contained 0.1M Hepes-NaOH pH 7.0, 7 mM ATP, 20 mM Mn acetate, 1 mM UDP-Gal, UDP [^14C]Gal (0.05 μCi; 327mCi/mmol; Amersham), 0.5 mM acceptor (unless otherwise stated) and the enzyme in a total volume of 20 μL. It was incubated for 4 h [Chandrasekaran et al., 2001]. βGlcNAc:β1,4GalNAc-T assay mixtures in duplicate contained 0.1M Hepes-NaOH pH 7.0, 7 mM ATP, 20 mM Mn acetate. UDP [^3H] GalNAc (0.20 μCi; 7.8 Ci/mmol: New England Nuclear Corp.) 7.5 mM acceptor (unless otherwise stated) and the enzyme in a total volume of 20 μL and incubated for 4 h [Chandrasekaran et al., 2001].
(§5) Dowex-1-C1 or Sep-Pak C18 cartridges were used to isolate radiolabeled product from the reaction mixture. For GalT, GalNAc-T and FT assays, the incubation mixture was diluted with 1 ml water and passed through a 1 ml Dowex-1-C1 column [Chandrasekaran et al., 1996; Chandrasekaran et al., 2001]. The column was washed twice with 1 ml of water. The breakthrough and the water wash contained the [^14C]-galactosylated or [^14C]-fucosylated products formed with neutral acceptors. 3 ml of 0.1M NaCl was used to obtain [^14C]-fucosylated products from sialylated acceptors after water elution. For sialytransferase assays, the radioactive products from benzylglycosides were separated by hydrophobic chromatography on Sep-Pak C18 cartridge (Waters, Milford, Mass.), and elution of the product was done with 3 ml methanol [Palcic et al., 1988]. For sulfotransferase assays, elution of the [^35S]-sulfated compound from Dowex-1-C1 column was achieved by 3 ml of 0.2M NaCl [Chandrasekaran et al., 2004].

[5] = test system: β-GlcNAc:β1,4Gal-T of breast tumor BC9400; assay: β-GlcNAc:β1,4Gal-T assay, breast tumor extract; format: biochemical, human; conditions: other acceptors, 1 mg protein of the tissue extract
Description: as §1, §4, §5

[6] = test system: β-GlcNAc:β1,4Gal-T of colon tumor CC9338; assay: β-GlcNAc:β1,4Gal-T assay, colon tumor extract; format: biochemical, human; conditions: other acceptors, 1 mg protein of the tissue extract
Description: as §1, §4, §5

[7] = test system: β-GlcNAc:β1,4GalNAc-T of breast tumor BC9400; assay: β-GlcNAc:β1,4GalNAc-T assay, breast tumor extract; format: biochemical, human; conditions: other acceptors, 1 mg protein of the tissue extract
Description: as §1, §4, §5

[8] = target: T1, human FTVII (Homo sapiens, UniProt Q11130); assay: [14C]Fuc transfer by FTVII from extracts of transfected COS-7 cells; format: biochemical; conditions: extracts of COS-7 cells transfected with FTVII cDNA; unpublished results
T1 construct: expressed in transfected cells; host or cells: COS-7
Description: The sialylation steps in this reaction scheme were validated by analyzing reaction products using mass spectroscopy (Table VI).

T1 sequence (Q11130 whole entry): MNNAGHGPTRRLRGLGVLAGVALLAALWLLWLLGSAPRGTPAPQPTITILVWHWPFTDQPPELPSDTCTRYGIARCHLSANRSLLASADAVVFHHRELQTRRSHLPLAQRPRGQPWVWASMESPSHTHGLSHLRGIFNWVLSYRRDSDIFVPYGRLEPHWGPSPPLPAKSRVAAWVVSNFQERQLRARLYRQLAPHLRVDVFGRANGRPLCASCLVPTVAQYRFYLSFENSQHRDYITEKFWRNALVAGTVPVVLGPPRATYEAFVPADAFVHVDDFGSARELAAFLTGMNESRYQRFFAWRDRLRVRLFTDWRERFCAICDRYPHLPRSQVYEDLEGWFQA

## OC[C@H]1O[C@@H](OCc2ccccc2)[C@H](O)[C@@H](O)[C@H]1O [Galβ-O-Bn]
[1]
  α1,2-L-FT activity: incorporation of radioactive sugar: 9.8 CPM × 10^−3
[2]
  α1,2-L-FT activity: incorporation of radioactive sugar: 20.6 CPM × 10^−3

## CC(=O)NC1C(O)CC(OCC2OC(OC(C)C(N)C(=O)O)C(NC(C)=O)C(OC3OC(CO)C(O)C(OC4(C(=O)O)CC(O)C(NC(C)=O)C(C(O)C(O)CO)O4)C3O)C2O)(C(=O)O)OC1C(O)C(O)CO (stereo not drawn) [NeuAcα2,3Galβ1,3(NeuAcα2,6)GalNAcα-O-Thr, NeuAcα2,3Galβ1,3 (NeuAcα2,6)GalNAcα-O-Thr]
[3]
  fold more potent than NeuAcα2,6GalNAcα-O-Thr in inhibiting Siglec 4 (MAG) binding: 3,000 fold

## C=CCO[C@@H]1O[C@H](CO[C@@H]2O[C@H](CO)[C@@H](O)[C@H](O)[C@@H]2O[C@@H]2O[C@H](CO)[C@@H](O)[C@H](O)[C@H]2NC(C)=O)[C@@H](O)[C@H](O)[C@H]1O [GlcNAcβ1,2Manβ1,6Glcβ-O—Al]
[4]
  b) β-GlcNAc:β1,4GalNAc-T activity: incorporation of radioactive sugar: 25.6 CPM × 10^−3
[5]
  a) β-GlcNAc:β1,4Gal-T activity: incorporation of radioactive sugar: 70.5 CPM × 10^−3
[6]
  a) β-GlcNAc:β1,4Gal-T activity: incorporation of radioactive sugar: 277.7 CPM × 10^−3
[7]
  b) β-GlcNAc:β1,4GalNAc-T activity: incorporation of radioactive sugar: 57.9 CPM × 10^−3

## CC(=O)NC1C(O)CC(OCC2OC(OC(C)C(N)C(=O)O)C(NC(C)=O)C(OC3OC(CO)C(O)C(O)C3O)C2O)(C(=O)O)OC1C(O)C(O)CO (stereo not drawn) [NeuAcα2,6(Galβ1,3)GalNAcα-O-Thr]
[3]
  fold more potent than NeuAcα2,6GalNAcα-O-Thr in inhibiting Siglec 4 (MAG) binding: 100 fold

## CO[C@@H]1O[C@H](COS(=O)(=O)O)[C@@H](O[C@@H]2O[C@H](CO)[C@H](O)[C@H](O[C@@H]3O[C@H](COS(=O)(=O)O)[C@@H](O[C@@H]4O[C@H](CO)[C@H](O)[C@H](O[C@]5(C(=O)O)C[C@H](O)[C@@H](NC(C)=O)[C@H]([C@H](O)[C@H](O)CO)O5)[C@H]4O)[C@H](O)[C@H]3NC(C)=O)[C@H]2O)[C@H](O)[C@H]1NC(C)=O [NeuAcα2,3Galβ1,4(6-O-Sulfo)GlcNAcβ1,3Galβ1,4(6-O-Sulfo)GlcNAcβ-O-Me]
[8]
  transfer of [14C]Fuc to the acceptor: efficiently transferring
